Square brackets hold non-standard residues; d marks the D form. Peptide text beside a SMILES is read from it. * marks the point of attachment. Sta = CC(C)C[C@H](N)[C@@H](O)CC(=O)O; Isovaleryl = CC(C)CC(=O)*
Key:
human renin = target: T1, human renin (Homo sapiens, UniProt P00797); experiment: in vitro human renin inhibition test (angiotensin I determined by radioimmunoassay); assay type: biochemical; settings: for relative activity of epimers as human renin inhibitor (in words): epimer of Example 9 versus epimer of Example 10
T1 construct: purchased National Institute for Biological Standards, London
T1 sequence (P00797 67-406): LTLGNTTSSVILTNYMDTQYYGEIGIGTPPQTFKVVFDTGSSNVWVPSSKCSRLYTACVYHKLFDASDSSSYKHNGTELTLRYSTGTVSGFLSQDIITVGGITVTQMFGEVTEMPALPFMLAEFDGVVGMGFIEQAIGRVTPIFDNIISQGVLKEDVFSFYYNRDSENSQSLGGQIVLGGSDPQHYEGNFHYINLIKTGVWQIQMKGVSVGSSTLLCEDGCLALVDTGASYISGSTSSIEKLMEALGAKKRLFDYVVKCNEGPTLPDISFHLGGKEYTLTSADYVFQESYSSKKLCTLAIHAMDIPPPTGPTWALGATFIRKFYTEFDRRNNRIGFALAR
Procedure: Compounds of Formula I were evaluated as inhibitors of human renin in an in vitro assay, as follows: This human renin inhibition test has been previously described in detail [Papaioannou, et al., Clinical and Experimental Hypertension, A7(9), 1243-1257 (1985)]. Human renin was obtained from the National Institute for Biological Standards, London. In a total volume of 0.25 mL 100 mM Tris-acetate buffer at pH 7.4, 25×10^-6 Goldblatt units of renin, 0.05 mL of plasma from human volunteers taking oral contraceptives, 6.0 mM sodium EDTA, 2.4 mM phenylmethyl sulfonyl fluoride, 1.5 mM 8-hydroxyquinoline, 0.4 mg/mL BSA, and 0.024 mg/mL neomycin sulfate were incubated for two hours at 37° C. in the presence or absence of renin inhibitors. The produced angiotensin I was determined by radioimmunoassay (New England Nuclear kit). Compounds of Formula I to be assayed were solubilized in either ethyl alcohol or DMSO and diluted with 100 mM Tris-acetate buffer at pH 7.4 to the appropriate concentration. The final concentration of organic solvent in the reaction mixture was less than 1%. Control incubations at 37° C. were used to correct for effects of organic solvent on renin activity.

hog renin = settings: after the injection of hog renin into nephrectomized rats; Gross et al, Science, 175, 656 (1971); cited from earlier work
pepsin = settings: Umezawa et al, J. Antibiot. 23:259-262 (1970); cited from earlier work
cathepsin D = settings: Umezawa et al, J. Antibiot. 23:259-262 (1970); cited from earlier work
renin = settings: Umezawa et al, J. Antibiot. 23:259-262 (1970); cited from earlier work
acid proteases = settings: cited from earlier work
[1] = in vitro, pH 7.4, 37° C., two hours, human plasma

For `CC(C)C[C@H](O)[C@H](O)[C@H](CC1CCCCC1)NC(=O)C(C)CNC(=O)[C@H](Cc1ccccc1)OC(=O)N1CCOCC1` (stereo partly drawn) [Example 8, O-(N-morpholinocarbonyl)-3-L-phenyllactyl-D,L-α-methyl-β-alaninamide of (2S, 3R, 4S)-2-amino-1-cyclohexyl-3,4-dihydroxy-6-methylheptane], the “inhibiting renin (in words)” value (human renin; in vitro) was “capable of inhibiting renin in vitro” and the IC50 (human renin; [1]) was 280 nM.
In the case of `CC(C)C[C@H](O)[C@H](O)[C@H](CC1CCCCC1)NC(=O)[C@H](C)CNC(=O)[C@H](Cc1ccccc1)OC(=O)N1CCOCC1` [Example 9, O-(N-morpholinocarbonyl)-3-L-phenyllactyl-α-(R)-methyl-β-alaninamide of (2 S, 3R, 4S)-2-amino-1-cyclohexyl-3,4-dihydroxy-6-methylheptane], the “relative activity of epimers as human renin inhibitor (in words)” value (human renin) is reported as “much more active as a human renin inhibitor than the other epimer of Example 10” and the IC50 (human renin; [1]) is reported as 210 nM.
For `CC(C)C[C@H](O)[C@H](O)[C@H](CC1CCCCC1)NC(=O)[C@@H](C)CNC(=O)[C@H](Cc1ccccc1)OC(=O)N1CCOCC1` [Example 10, O-(N-morpholinocarbonyl)-3-L-phenyllactyl-α-(S)-methyl-β-alaninamide of (2S, 3R, 4S)-2-amino-1-cyclohexyl-3,4-dihydroxy-6-methylheptane], the inhibition at 1 µM (human renin; @ 10^-6 M, in vitro, pH 7.4, 37° C., two hours, human plasma) was 8% and the “relative activity of epimers as human renin inhibitor (in words)” value (human renin) was “less active epimer”.
In the case of `CC(C)CC(=O)N[C@H](C(=O)N[C@H](C(=O)N[C@@H](CC(C)C)[C@@H](O)CC(=O)N[C@@H](C)C(=O)N[C@@H](CC(C)C)[C@@H](O)CC(=O)O)C(C)C)C(C)C` [pepstatin] (Isovaleryl-VV[Sta]A[Sta]-OH), the “reduction of blood pressure” value (hog renin) is given as “reduce blood pressure in vivo”, the “inhibition of pepsin (in words)” value (pepsin) is given as “inhibitor of aspartyl proteases such as pepsin” and the “inhibition of cathepsin D (in words)” value (cathepsin D) is given as “inhibitor of aspartyl proteases such as pepsin, cathepsin D”. For the same compound, the “inhibition of renin (in words)” value (renin) was “inhibitor of aspartyl proteases such as pepsin, cathepsin D and renin” and the “inhibition of acid proteases in addition to renin (in words)” value (acid proteases) was “inhibiting acid proteases in addition to renin”.

— patent US5089471A, “Peptidyl beta-aminoacyl aminodiol carbamates as anti-hypertensive agents” (G. D. Searle & Co., priority 1987, dated 1992)
